The record followed here is BindingDB's records for doi:10.1038/nchembio.2007.16 (Eisai Co., Ltd, 2007).

Values joined by “and” are separate entries in the source; they are usually repeats but may differ in a detail not shown here. Equal values may be shown once.

Assay [1] deals with T1, Splicing factor 3B subunit 3 (Homo sapiens, UniProt Q15393).
T1 sequence (Q15393 whole entry): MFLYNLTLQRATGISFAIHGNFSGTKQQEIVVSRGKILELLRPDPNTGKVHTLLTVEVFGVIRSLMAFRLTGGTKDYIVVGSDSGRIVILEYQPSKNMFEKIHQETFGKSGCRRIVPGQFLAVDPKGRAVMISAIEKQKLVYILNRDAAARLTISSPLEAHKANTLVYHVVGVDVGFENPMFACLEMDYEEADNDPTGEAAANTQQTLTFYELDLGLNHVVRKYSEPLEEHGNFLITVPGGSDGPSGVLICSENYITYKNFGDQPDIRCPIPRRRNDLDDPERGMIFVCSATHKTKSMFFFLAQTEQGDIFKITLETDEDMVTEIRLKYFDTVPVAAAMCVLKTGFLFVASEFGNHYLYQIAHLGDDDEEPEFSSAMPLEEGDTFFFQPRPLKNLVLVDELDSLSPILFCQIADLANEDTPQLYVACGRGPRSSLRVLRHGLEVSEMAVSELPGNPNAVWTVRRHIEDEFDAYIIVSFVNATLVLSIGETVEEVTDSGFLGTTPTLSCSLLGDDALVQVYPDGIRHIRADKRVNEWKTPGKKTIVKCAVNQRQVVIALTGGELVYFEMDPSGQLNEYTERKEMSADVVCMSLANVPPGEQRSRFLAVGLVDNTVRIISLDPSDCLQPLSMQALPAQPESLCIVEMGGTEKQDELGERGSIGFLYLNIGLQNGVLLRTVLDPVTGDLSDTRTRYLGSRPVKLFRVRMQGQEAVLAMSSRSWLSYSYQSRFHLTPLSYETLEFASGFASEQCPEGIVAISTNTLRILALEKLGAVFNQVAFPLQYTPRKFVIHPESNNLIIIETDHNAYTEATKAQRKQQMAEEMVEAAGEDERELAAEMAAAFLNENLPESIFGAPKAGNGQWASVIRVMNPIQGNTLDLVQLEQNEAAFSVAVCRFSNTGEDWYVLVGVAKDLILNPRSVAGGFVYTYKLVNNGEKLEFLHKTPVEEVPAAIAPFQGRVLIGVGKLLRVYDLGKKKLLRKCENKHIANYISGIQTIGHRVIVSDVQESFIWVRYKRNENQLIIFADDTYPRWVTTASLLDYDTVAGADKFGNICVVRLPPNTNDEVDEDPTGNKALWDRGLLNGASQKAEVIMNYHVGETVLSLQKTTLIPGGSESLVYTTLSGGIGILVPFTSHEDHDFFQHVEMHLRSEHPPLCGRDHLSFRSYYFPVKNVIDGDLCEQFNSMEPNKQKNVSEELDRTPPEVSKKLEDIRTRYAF
As to the kind of experiment: WiDr. The settings on record: pH 7.8; 4 °C. The source says: Cell proliferation assay using WiDr

In assay [2] the target is Splicing factor 3B subunit 1 / PHD finger-like domain-containing protein 5A (Homo sapiens, UniProt O75533+Q7RTV0). The assay can be described thus: VEGF-PLAP. The following applies: pH 7.8; 4 °C. From the text: Placental alkaline phosphatase (PLAP) reporter assay controlled by VEGF promoter (VEGF-PLAP)
Splicing factor 3B subunit 1 / PHD finger-like domain-containing protein 5A, sequence (O75533 whole entry, the tested form may be a part): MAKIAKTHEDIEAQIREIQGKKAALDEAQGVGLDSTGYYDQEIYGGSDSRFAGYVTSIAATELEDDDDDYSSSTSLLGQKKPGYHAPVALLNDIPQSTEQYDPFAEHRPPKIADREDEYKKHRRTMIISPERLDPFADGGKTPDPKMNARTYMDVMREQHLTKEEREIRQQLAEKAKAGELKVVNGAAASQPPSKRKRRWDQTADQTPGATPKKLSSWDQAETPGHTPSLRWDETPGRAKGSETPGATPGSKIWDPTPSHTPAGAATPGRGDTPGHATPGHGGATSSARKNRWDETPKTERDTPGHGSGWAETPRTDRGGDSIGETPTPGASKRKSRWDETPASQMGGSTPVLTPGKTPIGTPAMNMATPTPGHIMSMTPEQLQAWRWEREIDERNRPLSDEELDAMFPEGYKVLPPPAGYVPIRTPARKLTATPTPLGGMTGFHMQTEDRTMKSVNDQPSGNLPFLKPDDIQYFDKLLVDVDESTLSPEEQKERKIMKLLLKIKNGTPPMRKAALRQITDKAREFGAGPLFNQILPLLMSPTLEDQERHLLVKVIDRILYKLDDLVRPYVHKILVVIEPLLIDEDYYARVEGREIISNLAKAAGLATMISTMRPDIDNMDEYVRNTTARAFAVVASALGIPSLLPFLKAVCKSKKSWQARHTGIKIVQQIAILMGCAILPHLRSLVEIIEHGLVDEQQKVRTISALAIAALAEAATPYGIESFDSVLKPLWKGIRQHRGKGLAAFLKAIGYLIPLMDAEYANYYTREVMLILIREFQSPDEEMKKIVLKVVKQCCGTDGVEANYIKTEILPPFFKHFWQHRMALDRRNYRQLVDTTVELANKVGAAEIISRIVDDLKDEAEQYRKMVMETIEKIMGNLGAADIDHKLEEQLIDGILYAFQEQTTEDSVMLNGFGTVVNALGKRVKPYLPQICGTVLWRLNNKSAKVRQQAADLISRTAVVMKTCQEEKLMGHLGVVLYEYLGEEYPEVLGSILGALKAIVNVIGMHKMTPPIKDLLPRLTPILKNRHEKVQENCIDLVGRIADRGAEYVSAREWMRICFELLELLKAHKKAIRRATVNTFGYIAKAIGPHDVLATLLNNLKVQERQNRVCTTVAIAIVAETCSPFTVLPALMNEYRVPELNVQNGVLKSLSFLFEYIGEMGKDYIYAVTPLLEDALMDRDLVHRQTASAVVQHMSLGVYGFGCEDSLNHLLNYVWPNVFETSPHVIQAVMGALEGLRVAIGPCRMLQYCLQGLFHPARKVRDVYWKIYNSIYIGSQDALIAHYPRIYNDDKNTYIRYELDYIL
Splicing factor 3B subunit 1 / PHD finger-like domain-containing protein 5A, sequence (Q7RTV0 2-110 limits assumed): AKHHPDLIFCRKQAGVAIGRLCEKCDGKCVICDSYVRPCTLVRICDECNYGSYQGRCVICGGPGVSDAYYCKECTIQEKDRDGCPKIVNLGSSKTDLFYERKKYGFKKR

What is called EC50 is the concentration that produces a half-maximal response. A lower EC50 goes with a more potent agent. Consider `CC[C@H](O)[C@@H](C)[C@H]1O[C@@H]1C[C@H](C)/C=C/C=C(\C)[C@H]1OC(=O)C[C@H](O)CC[C@@](C)(O)[C@@H](OC(=O)NCCOCCOCCNC(=O)CCCCC2=[N+]3C(=Cc4c(C)cc(C)n4[B-]3(F)F)C=C2)/C=C/[C@@H]1C` [CID16202134], for which the 50% effective concentration (EC50) in assay [1] is 0.0702 µM; in assay [2] it was 0.0784 µM and 0.645 µM. For `CCNC(=O)O[C@H]1/C=C/[C@H](C)[C@@H](/C(C)=C/C=C/[C@@H](C)C[C@H]2O[C@@H]2[C@H](C)[C@@H](O)CC)OC(=O)C[C@H](O)CC[C@@]1(C)O` [CID16202133], the figures for the EC50 in assay [1] and in assay [2] were 0.0061 µM and 0.0049 µM, respectively. In the case of `CC[C@H](O)[C@@H](C)[C@H]1O[C@@H]1C[C@H](C)/C=C/C=C(\C)[C@H]1OC(=O)C[C@H](O)CC[C@@](C)(O)[C@@H](OC(=O)NCCCC[C@H](NC(=O)c2ccc(C3(C(F)(F)F)N=N3)cc2)C(=O)N(C)CCN(C)C(=O)CCCC[C@H]2SC[C@H]3NC(=O)N[C@H]32)/C=C/[C@@H]1C` [CID1620213], the EC50 in assay [1] was 0.595 µM. Turning to `CC[C@H](O)[C@@H](C)[C@H]1O[C@@H]1C[C@@](C)(O)/C=C/C=C(\C)[C@H]1OC(=O)C[C@H](O)CC[C@@](C)(O)[C@@H](OC(C)=O)/C=C/[C@@H]1C` [(3R,6R,7S,8E,10S,11S,12E,14E,16R,18R,19R,20R,21S)-7-acetoxy-3,6,16,21-tetrahydroxy-6,10,12,16,20-pentamethyl-18,19-epoxytricosa-8,12,14-triene-11-olide], the EC50 in assay [1] is 0.006 µM; in assay [2], 0.0043 µM.
